Laboratory results published in publication PMC10566475, “A cell-active cyclic peptide targeting the Nrf2/Keap1 protein–protein interaction” (Chemical Science, 2023).
*1 amine or outer side, *2 acyl side, *3 side chain or, on linkers, in order; H or OH if unused. Where a SMILES comes first, the peptide text is derived from it. Bridges are numbered along the chain shown (N, C = ends). Roman numbers before positions name the chains, in order. [ ]: non-standard residue; d: D form. X3 = CCCCCCCCCCCCCCCCCC(=O)NCCCC[C@H](NC(=O)COCCOCCNC(=O)COCCOCCn1cc(COCCOCCNc2nc(CC[*:1])cc(CC[*:2])n2)nn1)C(=O)NCCOCCOCC(=O)NCCOCCOCC(N)=O; X2 = O=C(CCCCn1cc(COCCOCCNc2nc(CC[*:1])cc(CC[*:2])n2)nn1)[*:3]

Key:
BEAS-2B cells = test: CellTiter Glo assay; settings: P8-H tested up to 30 μM
Source text: performed according to manufacturer instruction and using BEAS-2B cells

[1] = target: T1, human Keap1 Kelch domain (A321-T609) (Homo sapiens, UniProt Q14145); test: Surface plasmon resonance (SPR) direct binding assay, immobilised Keap1 Kelch domain; settings: Table 1
T1 construct: human Keap1 Kelch domain (A321-T609) fused with N-terminal 6x His-tag; 6xHis (N); made in house
Source text: (§1) We based the design of our Nrf2-like cyclic peptides around the amino acid sequence of the ETGE motif (namely 12-mer ^73[…]^84L) and SAR studies reported in the literature.[9,10,12,14] The […] motif is known to adopt a beta-turn conformation upon binding to Keap1. Residues Q73-Q75 and L85 stabilise the bound conformation, L76-D77 and E79-G81 bind deep into the pocket with E79 and E82 forming electrostatic interactions with Keap1 and D77 and T80 stabilising the beta-turn via H-bonds with E78 not contributing to the binding. […] The ability of the cyclic peptides to bind to the Kelch domain of Keap1 was evaluated using surface plasma resonance (SPR), where the Kelch domain is immobilised onto a SPR sensor chip. Additionally, we assessed the ability of the peptides to inhibit the PPI between Nrf2 and the Kelch domain of Keap1 using a time-resolved FRET (TR-FRET) assay. Here, the IC50 for inhibition of the interaction between the human Keap1 Kelch domain and an Nrf2-ETGE peptide is measured.
(§2) Surface Plasmon Resonance (SPR)
(§3) Peptide affinities to the Kelch domain of Keap1 is determined in a direct binding assay using 8K surface plasmon resonance (SPR) biosensor (Cytiva) at 20°C. Immobilization of Keap1 Kelch domain on a CM5 sensor chip (Cytiva) is performed using standard amine coupling procedure. The surface is washed with 10mM NaOH, 1M NaCl before activated with EDC/NHS (Cytiva), followed by immobilization of human Keap1 Kelch domain (A321-T609) fused with N-terminal 6x His-tag7 (in 10 mM MES, pH=6.4).
(§4) Finally, the surface is deactivated by Ethanolamine. Immobilization levels are typically 5000-6000 RU.
(§5) The reference spot is treated as described, omitting the injection of Keap1. Compound concentration series are injected over the immobilized protein in increasing concentrations using single cycle kinetics (SCK) in running buffer (10 mM HEPES, 150 mM NaCl, 0.05% Tween20, 1 mM TCEP, pH 7.4). A 1:1 Langmuir interaction model is fitted to the experimental traces, enabling determination of kon, koff and […]
(§6) In the time-resolved Förster resonance energy transfer (TR-FRET) assay8 the IC50 of inhibitors which […]
(§7) are determined. The TR-FRET is measured between a Tb-labelled mAb (Anti—6-His, Tb cryptate Gold, CisBio 61H12TLB) that binds to Keap 1 Kelch domain and d2-labelled SA-biotin-peptide.
(§8) The assay was performed in 384-well white low-volume, medium binding plates (Greiner Bio One, Austria) in 20 mM HEPES pH 7.5, 150 mM NaCl, 2 mM GSH (Sigma-Aldrich, USA),1mM EDTA (Sigma-Aldrich, USA), and 0.01% Pluronic F127 (MilliporeSigma, USA), with a final reaction volume of 10 µL.
(§9) To determine the ability of synthesized peptide to inhibit PPI between the Keap1 Kelch domain and Nrf2, 1nM purified human Keap1 Kelch domain (A321-T609) fused with N-terminal 6x His-tag, 5 nM biotinylated Nrf2 peptide ([…], Genescript, USA), d2-labeled streptavidin (Revvity, USA), and […] anti-His monoclonal antibody tagged with terbium cryptate (Revvity, USA), were incubated in the presence of varying concentrations of investigated peptides for 3 h at room […]
(§10) 7 Li X, Zhang D, Hannink M, Beamer LJ. Crystallization and initial crystallographic analysis of the Kelch domain from human Keap1. Acta
(§11) 8 S. Lee, D. Ali Abed, L. J. Beamer, L. Hu, Development of a Homogeneous Time-Resolved Fluorescence Resonance Energy Transfer (TR-

[2] = system: NQO1 gene expression in BEAS-2B cells (Homo sapiens); test: BEAS-2B NQO1 assay (qPCR of NQO1 mRNA); type: cell-based; settings: 24 h, concentrations of up to 10 μM
Source text: The effect of peptides on Nrf2-dependent gene expression was investigated in BEAS-2B cells, where we determined the upregulation of the mRNA of NAD(P)H quinone dehydrogenase (NQO1) by qPCR. The expression of NQO1 is Nrf2-dependent and it is one of the two major quinone reductases, which play a crucial role in protecting cells from oxidative stress.[40] ^§§ In the context of this study we chose BEAS-2B cells as a representative model for epithelial cells. The presence of serum has been reported to affect BEAS-2B cell phenotype. Specifically, exposure of BEAS-2B to FBS has been associated with squamous differentiation, alteration in cytokine secretion and response to toxicants.[42–44] […] In order to improve the cellular uptake, we took of advantage of the 2C-PS moiety, which not only allows the easy synthesis of a variety of macrocycles of different ring sizes, but also permits the facile introduction of a diverse set of moieties, which could enhance cell permeability. We pursued a diverse set of strategies to make the Keap1 peptide more cell permeable, namely: masking of the acidic amino acids with methyl esters, introduction of polyarginine peptides, GWWG-polyarginine peptides or a long-chain fatty acid tag onto the staple, as well as peptide shortening and a combination of these. The rationale behind these strategies is explained herein, and details of their synthesis can be found in the ESI. ^†
Cellular Biology Experimental
(Thermo Fisher Scientific, USA).
calculated using QunatStudio 7 software.

[3] = target: T2, interaction between the human Keap1 Kelch domain and an Nrf2-ETGE peptide (Homo sapiens, UniProt Q14145); test: Keap1-Nrf2 TR-FRET (HTRF) assay; type: binding; settings: Table 1; geometric mean ± sd of at least 3 independent repeats unless stated; read-out: TR-FRET IC50
T2 construct: 1nM purified human Keap1 Kelch domain (A321-T609) fused with N-terminal 6x His-tag; made in house
Source text: as §1, §2, §3, §4, §5, §6, §7, §8, §9, §10, §11
Following the incubation, the PHERAstar FSX […] microplate reader was used to measure the acceptor and donor emissions at 665 nm and 620 nm, respectively. The acceptor/donor ratio was used to calculate relative energy transfer. Data was normalized by two-point normalization using neutral and inhibitor controls (neutral control: DMSO, inhibitor control: 0.1nM 2-[[4-[carboxymethyl-(4-methoxyphenyl)sulfonylamino]naphthale n-1-yl]-(4-methoxyphenyl)sulfonylamino]acetic acid; […]
parameter logistic fit and IC50 values were calculated using Genedata screener software (Genedata, […]

[4] = single cycle kinetics, 1:1 Langmuir model

T1 sequence (Q14145 321-609): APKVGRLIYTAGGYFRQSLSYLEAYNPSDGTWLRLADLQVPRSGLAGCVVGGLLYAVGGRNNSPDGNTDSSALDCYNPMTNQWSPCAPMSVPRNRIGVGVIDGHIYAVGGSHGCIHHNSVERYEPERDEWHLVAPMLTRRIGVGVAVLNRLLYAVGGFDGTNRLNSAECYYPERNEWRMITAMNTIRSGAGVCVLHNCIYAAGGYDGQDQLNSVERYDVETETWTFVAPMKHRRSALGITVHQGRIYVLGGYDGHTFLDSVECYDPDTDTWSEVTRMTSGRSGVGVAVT
Chain of NQO1 gene expression in BEAS-2B cells (Homo sapiens) (Q14145 whole entry): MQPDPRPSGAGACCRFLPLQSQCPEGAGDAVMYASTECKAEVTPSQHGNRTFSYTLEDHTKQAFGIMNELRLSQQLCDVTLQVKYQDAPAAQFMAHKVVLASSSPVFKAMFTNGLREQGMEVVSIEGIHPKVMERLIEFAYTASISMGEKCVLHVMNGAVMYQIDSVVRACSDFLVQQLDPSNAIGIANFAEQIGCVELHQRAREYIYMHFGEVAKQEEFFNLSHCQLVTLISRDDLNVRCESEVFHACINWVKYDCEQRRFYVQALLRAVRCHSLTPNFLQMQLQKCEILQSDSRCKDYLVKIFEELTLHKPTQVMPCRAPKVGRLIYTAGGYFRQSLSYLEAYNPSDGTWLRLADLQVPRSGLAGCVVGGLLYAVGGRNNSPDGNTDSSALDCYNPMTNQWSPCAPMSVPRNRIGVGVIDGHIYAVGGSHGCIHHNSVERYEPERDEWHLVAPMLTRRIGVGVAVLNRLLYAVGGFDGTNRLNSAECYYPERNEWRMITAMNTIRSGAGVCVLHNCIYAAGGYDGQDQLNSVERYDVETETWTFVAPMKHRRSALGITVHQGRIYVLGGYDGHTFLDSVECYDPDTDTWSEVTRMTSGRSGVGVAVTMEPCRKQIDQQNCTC
T2 sequence (Q14145 321-609): as the sequence (Q14145 321-609) above

Compound | cytotoxicity in CellTiter Glo assay (BEAS-2B cells) | induction of NQO1 mRNA (Nrf2-dependent gene expression) [2] | other results
CC1(C)CC[C@]2(C(=O)O)CC[C@]3(C)[C@H](C(=O)C=C4[C@@]5(C)C=C(C#N)C(=O)C(C)(C)[C@@H]5CC[C@]43C)[C@@H]2C1 [Bardoxolone, reference compound] | cytotoxic |  | 
Ac-LQLDPETGEFL-NH2 [reference compound] |  | did not lead to any induction | Kd ([1]; geometric mean ± sd of at least 3 independent repeats unless stated, 20°C): 52 ± 1.4 nM; koff [1, 4]: 0.0079 s⁻¹; kon [1, 4]: 170000 M⁻¹ s⁻¹; IC50 [3]: 5.3 ± 1.2 nM
CCCCCCCCCCCCCCCCCC(=O)NCCCC[C@H](NC(=O)COCCOCCNC(=O)COCCOCCn1cc(COCCOCCNc2nc3cc(n2)CCSC[C@@H](C(=O)N[C@@H](CC(C)C)C(N)=O)NC(=O)[C@H](CCC(=O)O)NC(=O)CNC(=O)[C@H]([C@@H](C)O)NC(=O)[C@H](CCC(=O)O)NC(=O)[C@@H]2CCCN2C(=O)[C@H](CC(=O)O)NC(=O)[C@H](CC(C)C)NC(=O)[C@H](CCC(N)=O)NC(=O)[C@H](CC(C)C)NC(=O)[C@@H](NC(C)=O)CSCC3)nn1)C(=O)NCCOCCOCC(=O)NCCOCCOCC(N)=O [Peptide P3-H] (Ac-CLQLDPETGECL-NH2; linker 1-11 via X3) |  | did not induce Nrf2-dependent gene expression | 
CC(=O)N[C@H]1CSCCc2cc(nc(NCCOCCOCc3cn(CCCCC(=O)NCC(=O)N[C@@H](Cc4c[nH]c5ccccc45)C(=O)N[C@@H](Cc4c[nH]c5ccccc45)C(=O)NCC(=O)N[C@H](CCCNC(=N)N)C(=O)N[C@H](CCCNC(=N)N)C(=O)N[C@H](CCCNC(=N)N)C(N)=O)nn3)n2)CCSC[C@@H](C(=O)N[C@@H](CC(C)C)C(N)=O)NC(=O)[C@H](CCC(=O)O)NC(=O)CNC(=O)[C@H]([C@@H](C)O)NC(=O)[C@H](CCC(=O)O)NC(=O)[C@@H]2CCCN2C(=O)[C@H](CC(=O)O)NC1=O [Peptide P8-G] |  | did not lead to any activity | 
CC(=O)N[C@H]1CSCCc2cc(nc(NCCOCCOCc3cn(CCCCC(=O)NCC(=O)N[C@@H](Cc4c[nH]c5ccccc45)C(=O)N[C@@H](Cc4c[nH]c5ccccc45)C(=O)NCC(=O)N[C@H](CCCNC(=N)N)C(=O)N[C@H](CCCNC(=N)N)C(=O)N[C@H](CCCNC(=N)N)C(N)=O)nn3)n2)CCSC[C@@H](C(=O)N[C@@H](CC(C)C)C(N)=O)NC(=O)[C@H](CCC(=O)O)NC(=O)CNC(=O)[C@H]([C@@H](C)O)NC(=O)[C@H](CCC(=O)O)NC(=O)[C@@H]2CCCN2C(=O)[C@H](CC(=O)O)NC(=O)[C@H](CC(C)C)NC(=O)[C@H](CCC(N)=O)NC(=O)[C@H](CC(C)C)NC1=O [Peptide P3-G] (I: Ac-CLQLDPETGECL-NH2 / II: GWWG[dR][dR][dR]-NH2; linker I:1-I:11-II:N via X2) |  | no activity was detected | 
CCCCCCCCCCCCCCCCCC(=O)NCCCC[C@H](NC(=O)COCCOCCn1cc(COCCOCCNc2nc3cc(n2)CCSC[C@@H](C(=O)N[C@@H](CC(C)C)C(N)=O)NC(=O)[C@H](CCC(=O)O)NC(=O)CNC(=O)[C@H]([C@@H](C)O)NC(=O)[C@H](CCC(=O)O)NC(=O)[C@@H]2CCCN2C(=O)[C@H](CC(=O)O)NC(=O)[C@@H](NC(C)=O)CSCC3)nn1)C(=O)NCCOCCOCC(=O)NCCOCCOCC(N)=O [Peptide P8-H] | no cytotoxicity |  | 
